Legend:
[1] = tested on: LNCaP cells; test: Cell proliferation (MTS) assay, androgen-stimulated growth; type: cell-based, human; settings: six days; for androgen-stimulated cell growth: with 1 nM mibolerone (Mib)
Protocol: (§1) A human prostate cancer cell line, LNCaP (American Type Culture Collection (ATCC), Manassas, Va.), was cultured in RPMI 1640 medium (Mediatech, Herndon, Va.) supplemented with 5% fetal bovine serum (FBS) at 37° C. and 5% CO2 until reaching approximately 50-70% confluence. The media were changed to serum-free RPMI 1640 24 hrs prior to experiments being performed to deplete undesired steroids. […] Equivalent amounts of solvent were added to control cells.
(§2) For cell proliferation and PSA expression assays, LNCaP cells were seeded at 2×10^4 cells per well in 24 well plates. […] Six days after treatment, 400 μl of spent media were collected for total PSA protein measurements by the Tandem-E PSA kit (Hybritech Inc. San Diego, Calif.). An MTS assay was performed (Promega, Madison, Wis.) for measuring cell viability. Four wells per treatment were used for the above assays and it was repeated twice. PSA levels in spent media were normalized to cell number.

[2] = tested on: c-fos; test: Level of c-fos in LNCaP cells; type: cell-based, human
[3] = tested on: androgen-regulated genes (NKX 3.1, ODC, fkbp 51, Drg-1, PSA); test: Northern blot of androgen-regulated genes in LNCaP cells; type: cell-based, human
Protocol: A denaturing RNA gel was run and transferred onto a nylon membrane (BioRad) according to the GeneScreen protocol (New England Nuclear). Fifteen μg of total RNA was loaded in each lane. cDNAs for PSA, ornithine decarboxylase (ODC), NKX 3.1, fkbp 51, Drg-1 and glyceraldehyde-3-phosphate dehydogenase (GAPDH) were labeled with [P^32]dCTP by random priming and used as probes. The hybridizations were performed according to the recommended protocol using ExpressHyb Hybridization Solution (Clontech, Palo Alto, Calif.). The films were autoradiographed at −70° C. overnight.

[4] = tested on: hsp90; test: Level of hsp90; type: cell-based
[5] = tested on: hsp70; test: Level of hsp70; type: cell-based
[6] = tested on: ARA70; test: Level of androgen receptor specific co-activator ARA70; type: cell-based
[7] = tested on: PSA; test: PSA quantification in spent media (Tandem-E PSA kit); type: cell-based, human; settings: LNCaP cells, 1 nM Mib, six days, normalized to cell number
Protocol: as §1, §2

[8] = target: T1, androgen receptor (Homo sapiens, UniProt P10275, T878A); type: cell-based; settings: LNCaP cells, 3.2 nM Mib
T1 construct: LNCaP cells express the androgen receptor; endogenous in cells; host or cells: LNCaP
T1 sequence (P10275 whole entry T878A): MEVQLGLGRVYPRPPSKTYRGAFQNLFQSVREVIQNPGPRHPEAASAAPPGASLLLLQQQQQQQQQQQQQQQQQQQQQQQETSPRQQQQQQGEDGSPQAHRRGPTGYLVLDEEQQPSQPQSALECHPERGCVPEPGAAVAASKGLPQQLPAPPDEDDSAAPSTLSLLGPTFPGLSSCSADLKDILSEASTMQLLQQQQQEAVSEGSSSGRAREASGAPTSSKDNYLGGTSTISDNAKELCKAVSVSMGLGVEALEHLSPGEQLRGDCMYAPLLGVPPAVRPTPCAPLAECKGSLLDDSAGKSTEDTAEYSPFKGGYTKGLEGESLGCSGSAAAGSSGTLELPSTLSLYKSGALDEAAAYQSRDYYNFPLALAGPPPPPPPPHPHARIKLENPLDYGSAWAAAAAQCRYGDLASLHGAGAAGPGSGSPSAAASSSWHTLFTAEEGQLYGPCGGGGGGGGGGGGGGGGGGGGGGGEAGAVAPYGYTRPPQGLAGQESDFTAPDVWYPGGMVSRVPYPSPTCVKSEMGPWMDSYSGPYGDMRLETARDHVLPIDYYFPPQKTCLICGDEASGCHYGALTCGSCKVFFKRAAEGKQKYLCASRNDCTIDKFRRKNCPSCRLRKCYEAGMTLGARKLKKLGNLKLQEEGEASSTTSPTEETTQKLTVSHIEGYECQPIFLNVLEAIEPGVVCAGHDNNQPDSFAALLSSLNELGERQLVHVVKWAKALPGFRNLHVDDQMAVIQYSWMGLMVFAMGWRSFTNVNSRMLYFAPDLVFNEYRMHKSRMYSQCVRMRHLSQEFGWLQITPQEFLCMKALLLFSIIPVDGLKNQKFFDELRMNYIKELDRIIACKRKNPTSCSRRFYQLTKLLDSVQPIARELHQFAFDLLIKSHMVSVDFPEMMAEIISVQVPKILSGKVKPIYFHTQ
Protocol: LNCaP or PC-3 cells were plated in 60 mm dishes. Cells were transiently transfected as described (Zhang et al., 1999, Endocrin, 140:1665-71) with either 3 copies of an hK2 ARE in a pGL3 promoter plasmid, CMV-β-gal, a human androgen receptor expression vector or a c-jun expression vector as indicated. The androgen receptor and c-jun constructs were driven by an SV40 promoter. LNCaP cells were transfected using liposome containing dimethyldioctadecyl-ammonium bromide (DDAB) (Sigma) and L-α-lecithin (Sigma) (4:10 w/w) and PC-3 cells were transfected using lipofectamine (Gibco BRL, Grand Island, N.Y.). […] Whole cell extracts were prepared according to Ren et al., (2000, Oncogene, 19:1924-32) and a luciferase assay was performed according to manufacturer's instructions (Promega). The CMV-β-galactosidase (β-gal) expression vector and the parental vector (pGL3) were included as controls in the above transfections. β-gal activity or total protein using the Bradford assay (BioRad, Hercules, Calif.) were assayed for normalization purposes. Luciferase activities were normalized to β-gal activities and presented as relative light units/mU β-gal. Each transfection was done three times and results were analyzed by the Student's t-test. A p<0.05 was accepted as the level of significance.

`CCC=CCC=CCC=CCC=CCC=CC/C=C\CCC(=O)O` [DHA, cis-4,7, 10, 13, 16, 19-docosahexaenoic acid] was tested. Which androgen-stimulated cell growth [1] did it give?
The androgen-stimulated cell growth was “dose-dependent statistically significant decrease in cell growth”.

And the “cell growth without androgen stimulation” value ([1]; without Mib)?
The value was “little response”.

What about the levels of c-fos [2] of the same molecule?
The levels of c-fos was “unaltered”.

What about the “androgen-induced mRNA of NKX 3.1, ODC, fkbp 51, Drg-1 and PSA” value ([3]; 1 nM Mib, DHA at 150 μM or higher) of the same molecule?
Its value is “greatly inhibited the androgen-induced response”.

And the “levels of hsp90” value [4]?
The value was “no inhibitory effects were observed”.

What about the “levels of hsp70” value [5] of the same molecule?
The value was “no inhibitory effects were observed”.

And the “levels of ARA70” value [6]?
Its value is “no inhibitory effects were observed”.

And the “androgen-stimulated PSA secretion” value [7]?
The value was “decrease in androgen-stimulated PSA secretion”.

Which androgen-stimulated cell growth [1] does the source give for `CCC=CCC=CCC=CCC=CC/C=C\CCCC(=O)O` [EPA, cis-5,8, 11, 14, 17-eicosapentaenoic acid] here?
Its androgen-stimulated cell growth is “decreased androgen-stimulated cell growth”.

What about the “mRNA and protein levels of PSA and hK2” value ([3]; summary statement) of the same molecule?
Its value is “reduce both the mRNA and protein levels”.

What about the “levels of hsp90” value [4] of the same molecule?
Its value is “no inhibitory effects were observed”.

What about the “levels of hsp70” value [5] of the same molecule?
The value was “no inhibitory effects were observed”.

And the “androgen-stimulated PSA secretion” value [7]?
The value was “required higher EPA concentrations for significant inhibition”.

With `C[C@@H]1CC2=CC(=O)CC[C@@H]2[C@H]2CC[C@@]3(C)[C@@H](CC[C@]3(C)O)[C@@H]21` [Mib, mibolerone] as the molecule, how does the “ARE luciferase activity, androgen alone” value [8] read?
The value was “strong androgenic induction of luciferase activity”.

— patent publication US6656969B2, “Methods and compositions for inhibiting the proliferation of prostate cancer cells” (Mayo Foundation for Medical Education and Research, priority 2001, dated 2003)
